Source: US6355673B1, “Substituted diaminocarboxylic acids” (Aventis Pharma Deutschland GmbH, priority 1997, dated 2002)
pIC50: −log10 of the molar value.

How the values were obtained:
stromelysin (MMP-3) = molecular target: T1, stromelysin (MMP-3) (Homo sapiens, UniProt P08254); assay: Enzyme inhibition of the catalytic domain of human stromelysin (fluorogenic substrate); assay type: biochemical; conditions: 15 min preincubation, pH=6.5, fluorescence 328 nm (ex)/393 nm (em)
T1 construct: enzymatic activity of the catalytic domains of human stromelysin and of neutrophil collagenase; made in house
T1 sequence (P08254 100-272 limits assumed): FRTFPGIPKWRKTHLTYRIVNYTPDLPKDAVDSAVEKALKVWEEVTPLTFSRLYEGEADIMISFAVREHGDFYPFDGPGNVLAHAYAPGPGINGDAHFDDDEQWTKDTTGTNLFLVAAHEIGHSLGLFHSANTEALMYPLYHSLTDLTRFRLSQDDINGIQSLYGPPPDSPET
Procedure: (§1) Preparation and determination of the enzymatic activity of the catalytic domains of human stromelysin and of neutrophil collagenase.
(§2) The enzymes stromelysin (MMP-3) and neutrophil collagenase (MMP-8) were prepared according to Ye et al. (Biochemistry; 31 (1992) pages 11231-11235). To measure the enzyme activity or the enzyme inhibitor action, 70 μl of buffer solution and 10 μl of enzyme solution are incubated for 15 min with 10 μl of a 10% strength (v/v) aqueous dimethyl sulfoxide solution, which optionally contains the enzyme inhibitor. After addition of 10 μl of a 10% strength (v/v) aqueous dimethyl sulfoxide solution which contains 1 mil/L of the substrates, the enzyme reaction is monitored by fluorescence spectroscopy (328 nm (ex)/393 nm(em)). The enzyme activity is shown as the extinction increase/min. The IC50 values listed in Table 2 are determined as those inhibitor concentrations which in each case lead to a 50% inhibition of the enzyme.
(§3) The buffer solution contains 0.05% Brij (Sigma, Deisenhofen, Germany) and also 0.1 mol/L tris/HCl, 0.1 mol/L NaCl, 0.01 mol/L CaCl2 and 0.1 mol/L piperazine-N,N′-bis(2-ethanesulfonic acid) (pH=6.5). The enzyme solution contains 5 μg/ml of one of the enzyme domains prepared according to Ye et al. The substrate solution contains 1 mil/L of the fluorogenic substrate (7-methoxycoumarin-4-yl)acetyl-Pro-Leu-Gly-Leu-3-(2′,4′-dinitrophenyl)-L-2,3-diaminopropionyl-Ala-Arg-NH2 (Bachem, Heidelberg, Germany).

[1] = molecular target: T2, neutrophil collagenase (MMP-8) (Homo sapiens, UniProt P22894); assay: Enzyme inhibition of the catalytic domain of neutrophil collagenase (fluorogenic substrate); assay type: biochemical; conditions: 15 min preincubation, pH=6.5, fluorescence 328 nm (ex)/393 nm (em)
T2 construct: enzymatic activity of the catalytic domains of human stromelysin and of neutrophil collagenase; made in house
T2 sequence (P22894 100-262 limits assumed): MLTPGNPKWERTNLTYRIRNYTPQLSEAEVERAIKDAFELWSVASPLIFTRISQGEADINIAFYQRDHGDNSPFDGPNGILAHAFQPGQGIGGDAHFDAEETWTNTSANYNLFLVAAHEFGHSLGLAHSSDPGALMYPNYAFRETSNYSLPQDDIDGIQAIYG
Procedure: as §1, §2, §3

| melting point [°C] | pIC50 (stromelysin (MMP-3)) | pIC50 [1] | SMILES |
| --- | --- | --- | --- |
| 176 | – | – | O=C(O)C(CCN1C(=O)c2ccccc2C1=O)NS(=O)(=O)c1ccc(-c2ccccc2)cc1 (racemic) [Example 27] |
| 238 | 8.22 | 8.52 | O=C(O)C(CCN1C(=O)c2ccccc2C1=O)NS(=O)(=O)c1ccc(-c2ccc(Cl)cc2)cc1 (racemic) [Example 29] |
| 168 | 7.52 | 8.30 | O=C(O)C(CCCN1C(=O)c2ccccc2C1=O)NS(=O)(=O)c1ccc(-c2ccccc2)cc1 (racemic) [Example 30] |
| 132 | 8.30 | 8.70 | O=C(O)C(CCCN1C(=O)c2ccccc2C1=O)NS(=O)(=O)c1ccc(-c2ccc(Cl)cc2)cc1 (racemic) [Example 31] |
| 181 | – | – | O=C(O)C(CCCCN1C(=O)c2ccccc2C1=O)NS(=O)(=O)c1ccc(-c2ccccc2)cc1 (racemic) [Example 33] |
| 178 | 8.30 | 8.70 | O=C(O)[C@@H](CCCN1C(=O)c2ccccc2C1=O)NS(=O)(=O)c1ccc(-c2ccc(Cl)cc2)cc1 [Example 6, 2-(2R)-(4-Chlorobiphenylsulfonylamino)-5-phthalimidoyl-pentanoic acid] |
| 69 to 70 | – | – | COC(=O)[C@@H](CCCCNC(=O)OCc1ccccc1)NS(=O)(=O)c1ccc(-c2ccc(Cl)cc2)cc1 [Example 17] |
| 167 | 7.40 | 8.22 | O=C(O)[C@H](CCN1C(=O)c2ccccc2C1=O)NS(=O)(=O)c1ccc(-c2ccccc2)cc1 [Example 28] |
| 179 | 8.22 | 8.70 | O=C(O)[C@H](CCCN1C(=O)c2ccccc2C1=O)NS(=O)(=O)c1ccc(-c2ccc(Cl)cc2)cc1 [Example 32] |
| 213 to 215 | 8.40 | 8.70 | O=C(O)[C@H](CCCN1Cc2ccccc2C1=O)NS(=O)(=O)c1ccc(-c2ccc(Cl)cc2)cc1 [Example 34] |
| 223 to 225 | – | – | O=C(O)[C@H](CCCN1Cc2ccccc2C1=O)NS(=O)(=O)c1ccc(Oc2ccc(Cl)cc2)cc1 [Example 68] |
| – | 7.70 | 8.40 | Cc1ccc(C(=O)NCCC[C@H](NS(=O)(=O)c2ccc(-c3ccc(Cl)cc3)cc2)C(=O)O)s1 [Example 120] |
| – | 8.52 | 8.70 | O=C(NCCC[C@H](NS(=O)(=O)c1ccc(-c2ccc(Cl)cc2)cc1)C(=O)O)c1cccs1 [Example 122] |
| – | 8.00 | 8.00 | O=C(NCCC[C@H](NS(=O)(=O)c1ccc(-c2ccc(Cl)cc2)cc1)C(=O)O)c1ccc2[nH]nnc2c1 [Example 125] |
| – | 7.52 | 8.00 | O=C(NCCC[C@H](NS(=O)(=O)c1ccc(-c2ccc(Cl)cc2)cc1)C(=O)O)c1ccc2ncccc2c1 [Example 126] |
| – | 7.70 | 8.52 | O=C(NCCC[C@H](NS(=O)(=O)c1ccc(-c2ccc(Cl)cc2)cc1)C(=O)O)c1ccncc1 [Example 127] |
| – | 8.30 | 8.70 | O=C(O)[C@H](CCCNC(=O)N1CCOCC1)NS(=O)(=O)c1ccc(-c2ccc(Cl)cc2)cc1 [Example 128] |
| – | 8.00 | 8.70 | O=C(NCCC[C@H](NS(=O)(=O)c1ccc(-c2ccc(Cl)cc2)cc1)C(=O)O)c1ccccc1C(F)(F)F [Example 129] |
| – | 7.70 | 8.40 | O=C(NCCC[C@H](NS(=O)(=O)c1ccc(-c2ccc(Cl)cc2)cc1)C(=O)O)c1cccc(C(F)(F)F)c1 [Example 130] |
| – | 7.70 | 8.30 | O=C(/C=C/c1ccc(F)cc1)NCCC[C@H](NS(=O)(=O)c1ccc(-c2ccc(Cl)cc2)cc1)C(=O)O [Example 131] |
| – | 7.52 | 8.00 | O=C(/C=C/c1ccc(Cl)cc1)NCCC[C@H](NS(=O)(=O)c1ccc(-c2ccc(Cl)cc2)cc1)C(=O)O [Example 132] |
| – | 8.30 | 8.70 | O=C(CCc1ccccc1)NCCC[C@H](NS(=O)(=O)c1ccc(-c2ccc(Cl)cc2)cc1)C(=O)O [Example 133] |
| – | 8.30 | 8.70 | O=C(O)[C@H](CCCN1C(=O)c2ccccc2S1(=O)=O)NS(=O)(=O)c1ccc(-c2ccc(Cl)cc2)cc1 [Example 134] |
| – | 7.52 | 8.10 | N#Cc1ccccc1C(=O)NCCC[C@H](NS(=O)(=O)c1ccc(-c2ccc(Cl)cc2)cc1)C(=O)O [Example 135] |
| – | 8.00 | 8.15 | CN(C)c1ccc(C(=O)NCCC[C@H](NS(=O)(=O)c2ccc(-c3ccc(Cl)cc3)cc2)C(=O)O)cc1 [Example 136] |

| melting point [°C] | pIC50 (stromelysin (MMP-3)) | pIC50 [1] | SMILES |
| --- | --- | --- | --- |
| – | 7.70 | 8.15 | CN(C)c1ccccc1C(=O)NCCC[C@H](NS(=O)(=O)c1ccc(-c2ccc(Cl)cc2)cc1)C(=O)O [Example 137] |
| – | 7.52 | 8.00 | Cc1cc(C(=O)NCCC[C@H](NS(=O)(=O)c2ccc(-c3ccc(Cl)cc3)cc2)C(=O)O)ccc1[N+](=O)[O-] [Example 138] |
| – | 7.30 | 7.70 | COc1cccc(OC)c1C(=O)NCCC[C@H](NS(=O)(=O)c1ccc(-c2ccc(Cl)cc2)cc1)C(=O)O [Example 139] |
| – | 7.22 | 7.70 | O=C(/C=C/C1C=NC=N1)NCCC[C@H](NS(=O)(=O)c1ccc(-c2ccc(Cl)cc2)cc1)C(=O)O (stereo partly shown) [Example 140] |
| – | 8.00 | 8.00 | O=C(NCCC[C@H](NS(=O)(=O)c1ccc(-c2ccc(Cl)cc2)cc1)C(=O)O)c1ccc2[nH]cnc2c1 [Example 141] |
| – | 8.00 | 8.40 | NS(=O)(=O)c1ccc(C(=O)NCCC[C@H](NS(=O)(=O)c2ccc(-c3ccc(Cl)cc3)cc2)C(=O)O)cc1 [Example 142] |
| – | 8.30 | 8.70 | O=C(O)[C@H](CCCNC(=O)N1CCCC1)NS(=O)(=O)c1ccc(-c2ccc(Cl)cc2)cc1 [Example 143] |
| – | 8.00 | 8.52 | CN(CCC[C@H](NS(=O)(=O)c1ccc(-c2ccc(Cl)cc2)cc1)C(=O)O)C(=O)C1CC1 [Example 144] |
| – | 8.00 | 8.30 | CN(CCC[C@H](NS(=O)(=O)c1ccc(-c2ccc(Cl)cc2)cc1)C(=O)O)Cc1ccccc1 [Example 145] |
| – | 7.52 | 8.52 | CC(C)(C)OC(=O)NCCC[C@H](NS(=O)(=O)c1ccc(-c2ccccc2)cc1)C(=O)O [Example 146] |
| – | 7.52 | 8.00 | COc1ccccc1C(=O)NCCC[C@H](NS(=O)(=O)c1ccc(-c2ccc(Cl)cc2)cc1)C(=O)O [Example 151] |
| – | 7.22 | 8.00 | COc1cccc(C(=O)NCCC[C@H](NS(=O)(=O)c2ccc(-c3ccc(Cl)cc3)cc2)C(=O)O)c1 [Example 152] |
| – | 7.52 | 8.05 | Cn1cccc1C(=O)NCCC[C@H](NS(=O)(=O)c1ccc(-c2ccc(Cl)cc2)cc1)C(=O)O [Example 154] |
| – | 7.22 | 7.70 | COc1cc(Cl)cc(C(=O)NCCC[C@H](NS(=O)(=O)c2ccc(-c3ccc(Cl)cc3)cc2)C(=O)O)c1 [Example 156] |
| – | 7.40 | 8.15 | O=C(CCCc1ccccc1)NCCC[C@H](NS(=O)(=O)c1ccc(-c2ccc(Cl)cc2)cc1)C(=O)O [Example 157] |
| – | 8.15 | 8.70 | O=C(O)[C@H](CCCN1C(=O)C2CSCN2C1=O)NS(=O)(=O)c1ccc(-c2ccc(Cl)cc2)cc1 (stereo partly shown) [Example 158] |
| – | 7.15 | 8.00 | O=C(NCCC[C@H](NS(=O)(=O)c1ccc(-c2ccccc2)cc1)C(=O)O)c1ccccc1Cl [Example 160] |
| – | 7.40 | 8.40 | O=C(NCCC[C@H](NS(=O)(=O)c1ccc(-c2ccccc2)cc1)C(=O)O)C1CC1 [Example 161] |
| – | 7.30 | 8.22 | O=C(NCCC[C@H](NS(=O)(=O)c1ccc(-c2ccc(Cl)cc2)cc1)C(=O)O)c1cc(Cl)ccc1O [Example 162] |
| – | 7.40 | 7.70 | Cc1oncc1C(=O)NCCCC[C@@H](NS(=O)(=O)CCc1ccc(-c2ccccc2)cc1)C(=O)O [Example 168] |
| 226 to 227 | – | – | Cc1cc(C)nc(NCCC[C@H](NS(=O)(=O)c2ccc(-c3ccccc3)cc2)C(=O)O)n1 [Example 169] |
| 177 to 179 | 7.70 | 8.00 | Cc1cc(C)nc(NCCC[C@H](NS(=O)(=O)c2ccc(-c3ccc(Cl)cc3)cc2)C(=O)O)n1 [Example 170] |
| – | 7.52 | 8.00 | O=C(O)[C@H](CCCN1C(=O)c2ccc(Cl)cc2C1=O)NS(=O)(=O)c1ccc(-c2ccc(Cl)cc2)cc1 [Example 171] |
| 131 to 133 | – | – | CC(C)(C)OC(=O)NCCC[C@H](NS(=O)(=O)c1ccc(Oc2ccc(Cl)cc2)cc1)C(=O)O [Example 172] |
